Experimental data: ChEMBL document CHEMBL1201862, “PubChem BioAssay data set” (2004)
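Tested at 5 concentrations; 48 h exposure; 96-well plates; endpoints linearly interpolated, else capped at highest concentration. GI50: concentration for 50% inhibition of growth.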 Activity calls are given as the source filed them. No stated cut-off is given here; in the data, active = GI50 up to about 1.1 µM and inactive = higher.

Key:
Assay in all cases: NCI tumour cell line growth inhibition, 48 h
[1] = tested on: 786-0
[2] = tested on: A498
[3] = tested on: A549
[4] = tested on: ACHN
[5] = tested on: BT-549
[6] = tested on: CAKI-1
[7] = tested on: CCRF-CEM
[8] = tested on: COLO 205
[9] = tested on: DU-145
[10] = tested on: EKVX
[11] = tested on: HCC 2998
[12] = tested on: HCT-116
[13] = tested on: HCT-15
[14] = tested on: HOP-62
[15] = tested on: HOP-92
[16] = tested on: HT-29
[17] = tested on: Hs-578T
[18] = tested on: IGROV-1
[19] = tested on: K562
[20] = tested on: KM12
[21] = tested on: LOX IMVI
[22] = tested on: M14
[23] = tested on: MCF7
[24] = tested on: MDA-MB-231
[25] = tested on: MDA-MB-435
[26] = tested on: MDA-N
[27] = tested on: MOLT-4
[28] = tested on: Malme-3M
[29] = tested on: NCI-H226
[30] = tested on: NCI-H23
[31] = tested on: NCI-H460
[32] = tested on: NCI-H522
[33] = tested on: NCI/ADR-RES
[34] = tested on: OVCAR-3
[35] = tested on: OVCAR-4
[36] = tested on: OVCAR-8
[37] = tested on: PC-3
[38] = tested on: RPMI-8226
[39] = tested on: SF-268
[40] = tested on: SF-295
[41] = tested on: SF-539
[42] = tested on: SK-MEL-28
[43] = tested on: SK-MEL-2
[44] = tested on: SK-MEL-5
[45] = tested on: SK-OV-3
[46] = tested on: SN12C
[47] = tested on: SNB-19
[48] = tested on: SR
[49] = tested on: SW-620
[50] = tested on: T47D
[51] = tested on: TK-10
[52] = tested on: U-251
[53] = tested on: UACC-257
[54] = tested on: UACC-62
[55] = tested on: UO-31
[56] = tested on: HL-60
[57] = tested on: OVCAR-5
[58] = tested on: RXF 393
[59] = tested on: SNB-75

COc1ccc(OC)c2c1C=CC(Br)=CC2
GI50 [1]: 0.193 µM (active) | GI50 [2]: 0.324 µM (active) | GI50 [3]: 0.303 µM (active) | GI50 [4]: 0.312 µM (active) | GI50 [5]: 0.303 µM (active) | GI50 [6]: 0.269 µM (active) | GI50 [7]: 0.39 µM (active) | GI50 [8]: 0.314 µM (active) | GI50 [9]: 0.975 µM (active) | GI50 [10]: 0.309 µM (active) | GI50 [11]: 0.195 µM (active) | GI50 [12]: 0.232 µM (active) | GI50 [13]: 0.201 µM | GI50 [14]: 0.269 µM (active) | GI50 [15]: 0.148 µM (active) | GI50 [16]: 0.136 µM (active) | GI50 [17]: 0.224 µM (active) | GI50 [18]: 0.279 µM (active) | GI50 [19]: 0.173 µM (active) | GI50 [20]: 0.309 µM (active) | GI50 [21]: 0.158 µM (active) | GI50 [22]: 0.237 µM (active) | GI50 [23]: 0.295 µM (active) | GI50 [24]: 0.285 µM (active) | GI50 [25]: 0.239 µM (active) | GI50 [26]: 0.229 µM (active) | GI50 [27]: 0.144 µM (active) | GI50 [28]: 0.145 µM (active) | GI50 [29]: 0.372 µM (active) | GI50 [30]: 0.259 µM (active) | GI50 [31]: 0.211 µM (active) | GI50 [32]: 0.223 µM (active) | GI50 [33]: 0.296 µM (active) | GI50 [34]: 0.276 µM (active) | GI50 [35]: 0.4 µM (active) | GI50 [36]: 0.43 µM (active) | GI50 [37]: 0.352 µM (active) | GI50 [38]: 0.162 µM (active) | GI50 [39]: 0.313 µM (active) | GI50 [40]: 0.16 µM (active) | GI50 [41]: 0.653 µM (active) | GI50 [42]: 0.35 µM (active) | GI50 [43]: 0.106 µM (active) | GI50 [44]: 0.216 µM (active) | GI50 [45]: 0.0582 µM (active) | GI50 [46]: 0.372 µM (active) | GI50 [47]: 0.611 µM (active) | GI50 [48]: 0.191 µM (active) | GI50 [49]: 0.234 µM (active) | GI50 [50]: 0.192 µM (active) | GI50 [51]: 0.292 µM (active) | GI50 [52]: 0.43 µM (active) | GI50 [53]: 0.255 µM (active) | GI50 [54]: 0.137 µM (active) | GI50 [55]: 0.332 µM (active)

COC(=O)c1cc(C)n2c1CS[C@@H]2c1ccccc1
GI50 [1]: 50.6 µM (inactive) | GI50 [2]: 27.4 µM (inactive) | GI50 [3]: 34.7 µM (inactive) | GI50 [4]: 58.7 µM (inactive) | GI50 [5]: 29.2 µM (inactive) | GI50 [6]: 38.7 µM (inactive) | GI50 [7]: 41.4 µM (inactive) | GI50 [8]: 26.9 µM (inactive) | GI50 [9]: 82 µM (inactive) | GI50 [10]: 32.2 µM (inactive) | GI50 [12]: 33.7 µM (inactive) | GI50 [13]: 27.5 µM | GI50 [56]: 26.2 µM (inactive) | GI50 [14]: 37.8 µM (inactive) | GI50 [15]: 22.4 µM (inactive) | GI50 [16]: 31.2 µM (inactive) | GI50 [17]: 45.1 µM (inactive) | GI50 [18]: 44.4 µM (inactive) | GI50 [19]: 14.1 µM (inactive) | GI50 [20]: 35.1 µM (inactive) | GI50 [21]: 40.1 µM (inactive) | GI50 [22]: 24.9 µM (inactive) | GI50 [23]: 34 µM (inactive) | GI50 [24]: 57.4 µM (inactive) | GI50 [25]: 19.1 µM (inactive) | GI50 [26]: 21.1 µM (inactive) | GI50 [27]: 22.5 µM (inactive) | GI50 [28]: 27.6 µM (inactive) | GI50 [29]: 28.8 µM (inactive) | GI50 [30]: 34.5 µM (inactive) | GI50 [32]: 23.2 µM (inactive) | GI50 [33]: 25.1 µM (inactive) | GI50 [34]: 32.4 µM (inactive) | GI50 [35]: 36.8 µM (inactive) | GI50 [57]: > 100 µM (inactive) | GI50 [36]: 44.4 µM (inactive) | GI50 [37]: 40.5 µM (inactive) | GI50 [38]: 28.2 µM (inactive) | GI50 [58]: 18.6 µM (inactive) | GI50 [39]: 50.6 µM (inactive) | GI50 [40]: 30.7 µM (inactive) | GI50 [42]: > 100 µM (inactive) | GI50 [43]: 28.4 µM (inactive) | GI50 [44]: 19.8 µM (inactive) | GI50 [45]: 46 µM (inactive) | GI50 [46]: 37.2 µM (inactive) | GI50 [47]: 66.1 µM (inactive) | GI50 [59]: 16.5 µM (inactive) | GI50 [48]: 17.3 µM (inactive) | GI50 [49]: 44.6 µM (inactive) | GI50 [50]: 21.5 µM (inactive) | GI50 [51]: 66.4 µM (inactive) | GI50 [52]: 32 µM (inactive) | GI50 [53]: 47.9 µM (inactive) | GI50 [55]: 28.4 µM (inactive)

C[C@@H]1C[C@](O)([C@@H](C)Cl)C(=O)O[C@@H]2CCN3CC=C(COC(=O)[C@]1(C)O)[C@H]23
GI50 [1]: > 100 µM (inactive) | GI50 [2]: > 100 µM (inactive) | GI50 [3]: > 100 µM (inactive) | GI50 [4]: > 10 µM (inactive) | GI50 [5]: > 100 µM (inactive) | GI50 [6]: > 100 µM (inactive) | GI50 [7]: > 10 µM (inactive) | GI50 [8]: > 100 µM (inactive) | GI50 [9]: > 100 µM (inactive) | GI50 [10]: > 100 µM (inactive) | GI50 [11]: > 100 µM (inactive) | GI50 [12]: > 100 µM (inactive) | GI50 [13]: > 100 µM | GI50 [56]: > 100 µM (inactive) | GI50 [14]: > 100 µM (inactive) | GI50 [15]: > 100 µM (inactive) | GI50 [16]: > 100 µM (inactive) | GI50 [17]: > 100 µM (inactive) | GI50 [18]: > 100 µM (inactive) | GI50 [19]: > 100 µM (inactive) | GI50 [20]: > 100 µM (inactive) | GI50 [21]: > 100 µM (inactive) | GI50 [22]: > 100 µM (inactive) | GI50 [23]: > 100 µM (inactive) | GI50 [24]: > 100 µM (inactive) | GI50 [25]: > 100 µM (inactive) | GI50 [26]: > 100 µM (inactive) | GI50 [29]: > 100 µM (inactive) | GI50 [30]: > 10 µM (inactive) | GI50 [31]: > 10 µM (inactive) | GI50 [32]: > 100 µM (inactive) | GI50 [33]: > 100 µM (inactive) | GI50 [34]: > 100 µM (inactive) | GI50 [35]: > 100 µM (inactive) | GI50 [57]: > 100 µM (inactive) | GI50 [36]: > 100 µM (inactive) | GI50 [37]: > 100 µM (inactive) | GI50 [38]: > 100 µM (inactive) | GI50 [39]: > 100 µM (inactive) | GI50 [40]: > 100 µM (inactive) | GI50 [41]: > 100 µM (inactive) | GI50 [42]: > 100 µM (inactive) | GI50 [43]: > 100 µM (inactive) | GI50 [44]: > 100 µM (inactive) | GI50 [45]: > 100 µM (inactive) | GI50 [47]: > 10 µM (inactive) | GI50 [59]: > 100 µM (inactive) | GI50 [48]: > 100 µM (inactive) | GI50 [49]: > 100 µM (inactive) | GI50 [50]: > 100 µM (inactive) | GI50 [51]: > 100 µM (inactive) | GI50 [52]: > 100 µM (inactive) | GI50 [53]: > 100 µM (inactive) | GI50 [54]: > 100 µM (inactive) | GI50 [55]: > 10 µM (inactive)
